Test system: Abp1 PPIs
Assay: DHFR-PCA of Abp1 SH3-swapped baits (Fig. 2B-D, S2C, S2F);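 as to Protein-protein interaction distance between Abp1 SH3-swapped baits, to ABP1: Euclidean distance between DHFR-PCA score profiles of the baits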;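 as to Protein-protein interaction distance between Abp1 SH3-swapped baits, to BEM1-2: Euclidean distance between DHFR-PCA score profiles of the baits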;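 as to Protein-protein interaction distance between Abp1 SH3-swapped baits, to BOI1: Euclidean distance between DHFR-PCA score profiles of the baits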;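 as to Protein-protein interaction distance between Abp1 SH3-swapped baits, to BZZ1-1: Euclidean distance between DHFR-PCA score profiles of the baits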
Assay type: cell-based, Saccharomyces cerevisiae
Excerpt: Having determined that multiple PPIs require SH3s, we asked whether the latter establish PPI specificity independently from their host proteins by swapping domains (Fig. 2A). Using the second round of genome editing, we individually replaced Abp1 SH3 with the 27 yeast SH3s and 3 human Abp1 orthologs’ SH3s (CTTN, HCLS1, and DBNL, Fig. 2B). The reintroduction of its own SH3 (Abp1SH3 in Abp1) reconstitutes almost perfectly Abp1’s interaction profile (Kendall’s τ = 0.93, Fig. 2B). […] No homologous SH3 domain fully re-establishes the normal Abp1 PPI profile (Fig. 2B and Supplementary Fig. 2C). However, we observe a significant correlation (cophenetic correlation = 0.20, p value = 0.005, Fig. 2C) between the similarity of PPI profiles (Fig. 2B) and the sequence similarity of the SH3s. […] Nonetheless, a subset of SH3-dependent PPIs is only observed with the endogenous domain. For instance, Hua2 and App1, both well-characterized partners of Abp1[14],[18],[19], are only detected when Abp1 contains its own SH3 (WT or swapped via editing). A given SH3 may therefore not be fully replaceable with other paralogous or orthologous domains. This pattern is confirmed by cellular growth phenotypic analyses (Supplementary Fig. 2D, E). PPIs, SH3 sequence similarity, and growth profiles under stress conditions are correlated (Supplementary Fig. 2D, E). This relationship is particularly clear when analyzing growth on media supplemented with hygromycin.
The stuffing of YSC84 SH3 rendered the strain sterile and was therefore not used for this study as the assays require crosses. For genes containing two SH3s (BZZ1 and BEM1), a combination of this first stuffer with a second one ([…]) coding for a highly similar linker ([…]) was used, which allowed targeting each SH3 position independently. The two N-terminal domains of SLA1, which are separated by six nucleotides, were stuffed by a single stuffer. Cells containing pCAS were selected via the G418 resistance cassette from the plasmid on YPD plates (YPD + NAT 100 μg/ml (DHFR F[1,2] selection) + G418 200 µg/mL (Bioshop Canada)). Colonies were randomly selected and grown in YPD media without G418 to allow plasmid loss. The correct insertion of the stuffer was validated by PCR and Sanger sequencing. The SH3-swapped, -shuffled, and -mutated strains were constructed following a second CRISPR–Cas9 editing step with the same procedures. The stuffer sequences were targeted by specific gRNAs (one gRNA per stuffer) and replaced by PCR amplified specific SH3 (with 40 bp homology arms) or libraries of mutated SH3 domains for Deep Mutational Scanning (DMS) with 78 bp flanking homology regions. Validation of the SH3 domain insertions was done as we previously described except for DMS libraries (see below).
The overall DHFR-PCA pipeline is based on Tarassov et al.[43] and the procedures have also been published as a visualized protocol. The screens were performed with robotically manipulated pin tools (BM5-SC1, S&P Robotics Inc.). First, the preys were cherry-picked from 96-well plates to omnitrays in a 384 format on YPD + HPH solid media. Plates were then combined into the 1536 format on YPD + HPH. The array was constituted of 575 preys previously shown to interact physically with at least one SH3-containing protein as reported in BioGRID V3.4.16 along with 40 negative controls. The prey array comprised a border of control strains of two rows and two columns corresponding to the PPI between LSM8-DHFR F[1,2] and CDC39-DHFR F[3]. This double border was used to remove border effects. Preys are present in duplicate at a randomized position in the 1536 array (except for YAL041W which is present four times per array). Baits were crossed with two prey plates, resulting in four independent bait–prey tests for each PPI. Baits were grown in liquid YPD + NAT and then transferred on solid YPD + NAT omnitrays. They were then replicated on YPD + NAT omnitrays in 1536 array format. […]

CDC25
Protein-protein interaction distance between Abp1 SH3-swapped baits, to ABP1 (Abp1 bait with swapped SH3, distance to bait with ABP1 SH3, sheet Fig2C): 26.13 | Protein-protein interaction distance between Abp1 SH3-swapped baits, to BBC1 (distance to Abp1 bait with BBC1 SH3, sheet Fig2C): 24.45 | Protein-protein interaction distance between Abp1 SH3-swapped baits, to BEM1-1 (distance to Abp1 bait with BEM1-1 SH3, sheet Fig2C): 16.86 | Protein-protein interaction distance between Abp1 SH3-swapped baits, to BEM1-2 (distance to Abp1 bait with BEM1-2 SH3, sheet Fig2C): 13.04 | Protein-protein interaction distance between Abp1 SH3-swapped baits, to BOI1 (distance to Abp1 bait with BOI1 SH3, sheet Fig2C): 21 | Protein-protein interaction distance between Abp1 SH3-swapped baits, to BOI2 (distance to Abp1 bait with BOI2 SH3, sheet Fig2C): 19.43 | Protein-protein interaction distance between Abp1 SH3-swapped baits, to BUD14 (distance to Abp1 bait with BUD14 SH3, sheet Fig2C): 15.51 | Protein-protein interaction distance between Abp1 SH3-swapped baits, to BZZ1-1 (distance to Abp1 bait with BZZ1-1 SH3, sheet Fig2C): 25.36 | Protein-protein interaction distance between Abp1 SH3-swapped baits, to BZZ1-2 (distance to Abp1 bait with BZZ1-2 SH3, sheet Fig2C): 21.74 | Protein-protein interaction distance between Abp1 SH3-swapped baits, to CDC25 (distance to Abp1 bait with CDC25 SH3, sheet Fig2C): 0.00 | Protein-protein interaction distance between Abp1 SH3-swapped baits, to CTTN (distance to Abp1 bait with CTTN SH3, sheet Fig2C): 20.74 | Protein-protein interaction distance between Abp1 SH3-swapped baits, to CYK3 (distance to Abp1 bait with CYK3 SH3, sheet Fig2C): 5.497 | Protein-protein interaction distance between Abp1 SH3-swapped baits, to DBNL (distance to Abp1 bait with DBNL SH3, sheet Fig2C): 24.44 | Protein-protein interaction distance between Abp1 SH3-swapped baits, to FUS1 (distance to Abp1 bait with FUS1 SH3, sheet Fig2C): 14.2 | Protein-protein interaction distance between Abp1 SH3-swapped baits, to HCLS1 (distance to Abp1 bait with HCLS1 SH3, sheet Fig2C): 27.89 | Protein-protein interaction distance between Abp1 SH3-swapped baits, to HOF1 (distance to Abp1 bait with HOF1 SH3, sheet Fig2C): 10.42 | Protein-protein interaction distance between Abp1 SH3-swapped baits, to HSE1 (distance to Abp1 bait with HSE1 SH3, sheet Fig2C): 24.19 | Protein-protein interaction distance between Abp1 SH3-swapped baits, to LSB1 (distance to Abp1 bait with LSB1 SH3, sheet Fig2C): 30.85 | Protein-protein interaction distance between Abp1 SH3-swapped baits, to LSB3 (distance to Abp1 bait with LSB3 SH3, sheet Fig2C): 30.47 | Protein-protein interaction distance between Abp1 SH3-swapped baits, to MYO3 (distance to Abp1 bait with MYO3 SH3, sheet Fig2C): 29.41 | Protein-protein interaction distance between Abp1 SH3-swapped baits, to MYO5 (distance to Abp1 bait with MYO5 SH3, sheet Fig2C): 28.8 | Protein-protein interaction distance between Abp1 SH3-swapped baits, to NBP2 (distance to Abp1 bait with NBP2 SH3, sheet Fig2C): 15.13 | Protein-protein interaction distance between Abp1 SH3-swapped baits, to PEX13 (distance to Abp1 bait with PEX13 SH3, sheet Fig2C): 29.16 | Protein-protein interaction distance between Abp1 SH3-swapped baits, to PIN3 (distance to Abp1 bait with PIN3 SH3, sheet Fig2C): 28.09 | Protein-protein interaction distance between Abp1 SH3-swapped baits, to RVS167 (distance to Abp1 bait with RVS167 SH3, sheet Fig2C): 27.4 | Protein-protein interaction distance between Abp1 SH3-swapped baits, to SDC25 (distance to Abp1 bait with SDC25 SH3, sheet Fig2C): 14.8 | Protein-protein interaction distance between Abp1 SH3-swapped baits, to SHO1 (distance to Abp1 bait with SHO1 SH3, sheet Fig2C): 24.02 | Protein-protein interaction distance between Abp1 SH3-swapped baits, to SLA1-1 (distance to Abp1 bait with SLA1-1 SH3, sheet Fig2C): 7.329 | Protein-protein interaction distance between Abp1 SH3-swapped baits, to SLA1-2 (distance to Abp1 bait with SLA1-2 SH3, sheet Fig2C): 13.18 | Protein-protein interaction distance between Abp1 SH3-swapped baits, to SLA1-3 (distance to Abp1 bait with SLA1-3 SH3, sheet Fig2C): 30.95 | Protein-protein interaction distance between Abp1 SH3-swapped baits, to YSC84 (distance to Abp1 bait with YSC84 SH3, sheet Fig2C): 30.76 | SH3-dependent PPIs - SH3-dependent PPIs gained by Abp1 (number of PPIs, difference, Abp1 SH3-swapped with the listed SH3, Fig2D,S2F): 3 | SH3-dependent PPIs gained by Abp1 (number of PPIs, Abp1 SH3-swapped with the listed SH3, DHFR-PCA, Fig2D,S2F): 0

Reference: paper PMC7954794, “Protein context shapes the specificity of SH3 domain-mediated interactions in vivo” (Nature Communications, 2021)
